Reference: PubChem BioAssay AID1259407 (Chemical Carcinogenesis Research Information System (CCRIS), 2018)
Active and inactive are the calls of the source. No rule for the calls is given here.

Test system: CCRIS mutagenicity, Ames/micronucleus/aberration tests
Test: CCRIS mutagenicity studies
[1] = Test System: AMES SALMONELLA TYPHIMURIUM, Strain/Indicator: TA100, Metabolic Activation: NONE, Method: STANDARD PLATE
[2] = Test System: AMES SALMONELLA TYPHIMURIUM, Strain/Indicator: TA1535, Metabolic Activation: NONE, Method: STANDARD PLATE
[3] = Test System: AMES SALMONELLA TYPHIMURIUM, Strain/Indicator: TA98, Metabolic Activation: HAMSTER, LIVER, S-9, AROCLOR 1254 (10%), Method: PREINCUBATION
[4] = Test System: AMES SALMONELLA TYPHIMURIUM, Strain/Indicator: TA98, Metabolic Activation: NONE, Method: PREINCUBATION
[5] = Test System: AMES SALMONELLA TYPHIMURIUM, Strain/Indicator: TA98, Metabolic Activation: RAT, LIVER, S-9, AROCLOR 1254 (10%), Method: PREINCUBATION
[6] = Test System: AMES SALMONELLA TYPHIMURIUM, Strain/Indicator: TA100, Metabolic Activation: HAMSTER, LIVER, S-9, AROCLOR 1254 (10%), Method: PREINCUBATION
[7] = Test System: AMES SALMONELLA TYPHIMURIUM, Strain/Indicator: TA100, Metabolic Activation: NONE, Method: PREINCUBATION
[8] = Test System: AMES SALMONELLA TYPHIMURIUM, Strain/Indicator: TA100, Metabolic Activation: RAT, LIVER, S-9, AROCLOR 1254 (10%), Method: PREINCUBATION
[9] = Test System: AMES SALMONELLA TYPHIMURIUM, Strain/Indicator: TA1535, Metabolic Activation: HAMSTER, LIVER, S-9, AROCLOR 1254 (10%), Method: PREINCUBATION
[10] = Test System: AMES SALMONELLA TYPHIMURIUM, Strain/Indicator: TA1535, Metabolic Activation: NONE, Method: PREINCUBATION
[11] = Test System: AMES SALMONELLA TYPHIMURIUM, Strain/Indicator: TA1535, Metabolic Activation: RAT, LIVER, S-9, AROCLOR 1254 (10%), Method: PREINCUBATION
[12] = Test System: AMES SALMONELLA TYPHIMURIUM, Strain/Indicator: TA1537, Metabolic Activation: HAMSTER, LIVER, S-9, AROCLOR 1254 (10%), Method: PREINCUBATION
[13] = Test System: AMES SALMONELLA TYPHIMURIUM, Strain/Indicator: TA1537, Metabolic Activation: NONE, Method: PREINCUBATION
[14] = Test System: AMES SALMONELLA TYPHIMURIUM, Strain/Indicator: TA1537, Metabolic Activation: RAT, LIVER, S-9, AROCLOR 1254 (10%), Method: PREINCUBATION
[15] = Test System: AMES SALMONELLA TYPHIMURIUM, Strain/Indicator: TA98, Metabolic Activation: RAT LIVER S-9, PHENOBARBITAL AND BETA-NAPHTHOFLAVONE, Method: PREINCUBATION
[16] = Test System: AMES SALMONELLA TYPHIMURIUM, Strain/Indicator: TA100, Metabolic Activation: RAT LIVER S-9, PHENOBARBITAL AND BETA-NAPHTHOFLAVONE, Method: PREINCUBATION
[17] = Test System: AMES SALMONELLA TYPHIMURIUM, Strain/Indicator: TA1535, Metabolic Activation: RAT LIVER S-9, PHENOBARBITAL AND BETA-NAPHTHOFLAVONE, Method: PREINCUBATION
[18] = Test System: AMES SALMONELLA TYPHIMURIUM, Strain/Indicator: TA1537, Metabolic Activation: RAT LIVER S-9, PHENOBARBITAL AND BETA-NAPHTHOFLAVONE, Method: PREINCUBATION
[19] = Test System: E.COLI, Strain/Indicator: WP2UVRA, Metabolic Activation: NONE, Method: PREINCUBATION
[20] = Test System: E.COLI, Strain/Indicator: WP2UVRA, Metabolic Activation: RAT LIVER S-9, PHENOBARBITAL AND BETA-NAPHTHOFLAVONE, Method: PREINCUBATION

In the case of `Nc1ccccc1C(F)(F)F`, the mutagenic call (Test System: AMES SALMONELLA TYPHIMURIUM, Strain/Indicator: TA98, Metabolic Activation: NONE, Method: STANDARD PLATE) is reported as “inactive; negative”, the mutagenic call (Test System: AMES SALMONELLA TYPHIMURIUM, Strain/Indicator: TA98, Metabolic Activation: RAT, LIVER, S-9, AROCLOR 1254, Method: STANDARD PLATE) is reported as “inactive; negative” and the mutagenic call [1] is reported as “inactive; negative”. For the same compound, the mutagenic call (Test System: AMES SALMONELLA TYPHIMURIUM, Strain/Indicator: TA100, Metabolic Activation: RAT, LIVER, S-9, AROCLOR 1254, Method: STANDARD PLATE) was “inactive; negative”, the mutagenic call [2] was “inactive; negative” and the mutagenic call (Test System: AMES SALMONELLA TYPHIMURIUM, Strain/Indicator: TA1535, Metabolic Activation: RAT, LIVER, S-9, AROCLOR 1254, Method: STANDARD PLATE) was “inactive; negative”. The mutagenic call (Test System: AMES SALMONELLA TYPHIMURIUM, Strain/Indicator: TA1537, Metabolic Activation: NONE, Method: STANDARD PLATE) was “inactive; negative”, the mutagenic call (Test System: AMES SALMONELLA TYPHIMURIUM, Strain/Indicator: TA1537, Metabolic Activation: RAT, LIVER, S-9, AROCLOR 1254, Method: STANDARD PLATE) was “inactive; negative” and the mutagenic call (Test System: AMES SALMONELLA TYPHIMURIUM, Strain/Indicator: TA1538, Metabolic Activation: NONE, Method: STANDARD PLATE) was “inactive; negative”. For the same compound, the mutagenic call (Test System: AMES SALMONELLA TYPHIMURIUM, Strain/Indicator: TA1538, Metabolic Activation: RAT, LIVER, S-9, AROCLOR 1254, Method: STANDARD PLATE) was “inactive; negative”.

For `C=C(C)C(=O)OCCCCCCCCCC`, the mutagenic call [3] was “inactive; negative”, the mutagenic call [4] was “inactive; negative” and the mutagenic call [5] was “inactive; negative”. For the same compound, the mutagenic call [6] was “inactive; negative”, the mutagenic call [7] was “inactive; negative” and the mutagenic call [8] was “inactive; negative”. The mutagenic call [9] was “inactive; negative”, the mutagenic call [10] was “inactive; negative” and the mutagenic call [11] was “inactive; negative”. For the same compound, the mutagenic call [12] was “inactive; negative”, the mutagenic call [13] was “inactive; negative” and the mutagenic call [14] was “inactive; negative”.

For `CCOS(=O)(=O)OCC`, the mutagenic call (End Point: IN VITRO CHROMOSOMAL ABERRATIONS, Test System: CHL CELLS, Metabolic Activation: RAT, LIVER, S-9, SODIUM PHENOBARBITAL AND 5,6-BENZOFLAVONE) was “active; positive (structural changes)”, the mutagenic call (End Point: In vitro micronucleus, Test System: Chinese Hamster Ovary (CHO-WBL) cells, Metabolic Activation: None) was “active; positive (p<0.01)” and the mutagenic call [4] was “active; positive”. For the same compound, the mutagenic call [15] was “active; positive”, the mutagenic call [7] was “active; positive” and the mutagenic call [1] was “active; positive”. For the same compound, the mutagenic call [16] was “active; positive”, the mutagenic call [10] was “active; positive” and the mutagenic call [2] was “active; positive”. The mutagenic call [17] was “active; positive”, the mutagenic call [13] was “active; positive” and the mutagenic call [18] was “active; positive”. For the same compound, the mutagenic call (Test System: CHINESE HAMSTER OVARY, Strain/Indicator: CHO-K1-BH4 (HGPRT), Metabolic Activation: NONE, Method: STANDARD PLATE) was “active; positive”, the mutagenic call (Test System: CHINESE HAMSTER V-79, Strain/Indicator: V-79/6-THIOGUANINE, Metabolic Activation: NONE, Method: FLASK ASSAY) was “active; positive” and the mutagenic call [19] was “active; positive”. For the same compound, the mutagenic call [20] was “active; positive”.

In the case of `COc1cc(Cl)c(Cl)c(Cl)c1O`, the mutagenic call (Test System: CHINESE HAMSTER V-79, Strain/Indicator: V-79/6-THIOGUANINE, Metabolic Activation: NONE, Method: STANDARD PLATE) is reported as “active; positive” and the mutagenic call (Test System: CHINESE HAMSTER V-79, Strain/Indicator: V-79/6-THIOGUANINE, Metabolic Activation: PRIMARY RAT HEPATOCYTES, Method: STANDARD PLATE) is reported as “inactive; negative”.

`Cc1nc(N)nc(N)n1` was tested, and the mutagenic call [4] was “inactive; negative”, the mutagenic call [15] was “inactive; negative” and the mutagenic call [7] was “inactive; negative”. For the same compound, the mutagenic call [16] was “inactive; negative”, the mutagenic call [10] was “inactive; negative” and the mutagenic call [17] was “inactive; negative”. For the same compound, the mutagenic call [13] was “inactive; negative”, the mutagenic call [18] was “inactive; negative” and the mutagenic call (Test System: AMES SALMONELLA TYPHIMURIUM, Strain/Indicator: TA1538, Metabolic Activation: NONE, Method: PREINCUBATION) was “inactive; negative”. The mutagenic call (Test System: AMES SALMONELLA TYPHIMURIUM, Strain/Indicator: TA1538, Metabolic Activation: RAT LIVER S-9, PHENOBARBITAL AND BETA-NAPHTHOFLAVONE, Method: PREINCUBATION) was “inactive; negative”, the mutagenic call [19] was “inactive; negative” and the mutagenic call [20] was “inactive; negative”.

With `CCCCCC` the mutagenic call (Test System: AMES SALMONELLA TYPHIMURIUM, Strain/Indicator: TA97, Metabolic Activation: NONE, Method: PREINCUBATION) was “inactive; negative”, the mutagenic call (Test System: AMES SALMONELLA TYPHIMURIUM, Strain/Indicator: TA97, Metabolic Activation: RAT, LIVER, S-9, AROCLOR 1254, Method: PREINCUBATION) was “inactive; negative” and the mutagenic call [3] was “inactive; negative”. For the same compound, the mutagenic call [4] was “inactive; negative”, the mutagenic call [5] was “inactive; negative” and the mutagenic call [6] was “inactive; negative”. For the same compound, the mutagenic call [7] was “inactive; negative”, the mutagenic call [8] was “inactive; negative” and the mutagenic call (Test System: AMES SALMONELLA TYPHIMURIUM, Strain/Indicator: TA102, Metabolic Activation: NONE, Method: PREINCUBATION) was “inactive; negative”. For the same compound, the mutagenic call (Test System: AMES SALMONELLA TYPHIMURIUM, Strain/Indicator: TA102, Metabolic Activation: RAT, LIVER, S-9, AROCLOR 1254, Method: PREINCUBATION) was “inactive; negative”, the mutagenic call [9] was “inactive; negative” and the mutagenic call [10] was “inactive; negative”. For the same compound, the mutagenic call [11] was “inactive; negative”, the mutagenic call [12] was “inactive; negative” and the mutagenic call [13] was “inactive; negative”. The mutagenic call [14] was “inactive; negative”.
